Laboratory results as given in article PMC10683023, “Targeting Glial Cells by Organic Anion-Transporting Polypeptide 1C1 (OATP1C1)-Utilizing L-Thyroxine-Derived Prodrugs” (Journal of Medicinal Chemistry, 2023).

Tests used:
[1] = Enzymatic bioconversion in human plasma; type: in vitro ADME; conditions: after 5 h incubation, 37 °C, mean ± SD, n = 3
Protocol: (§1) The rates of bioactivation of the prodrugs 1–8 in mouse and human liver S9 fractions, as well as in mouse primary astrocyte–microglia homogenate, were determined at +37 °C. The incubation mixtures were prepared by mixing liver S9 subcellular fraction or brain cell homogenate (final protein concentration 1.0 mg/mL) with isotonic Tris–HCl buffer (pH 7.4) and 10 mM prodrug stock solution in DMSO (the initial concentration of prodrugs was 100 μM and the DMSO concentration was […]). The mixture was incubated for 5 h, and the samples ([…]) were withdrawn at appropriate intervals. The enzymatic reaction was terminated by the addition of ice-cold acetonitrile ([…]), and the samples were centrifuged for 5 min at 12 000 rpm at room temperature and kept on ice until the supernatants were analyzed by the HPLC method described below. In blank reactions, the S9 fractions were replaced with the same volume of buffer. The pseudo-first-order half-lives (t1/2) for the rates of bioconversion of the prodrugs were calculated from the slope of the linear portion of the plotted logarithm of the remaining prodrug concentration versus time. The rates of bioactivation of prodrugs 1–8 in human plasma and mouse serum were determined at 37 °C as above by adding 10 mM stock solution of the prodrug to plasma/serum in a ratio of 1:10 and analyzed similarly to the samples from S9 fractions.
(§2) The amount of prodrug 1–8 was determined by the HPLC system, which consisted of an Agilent 1100 binary pump (Agilent Technologies Inc., Wilmington, DE), an 1100 micro vacuum degasser, an HP 1050 Autosampler, and an HP 1050 variable wavelength detector, operated at 230–240 nm. The chromatographic separations were achieved on an Agilent Zorbax SB-C18 analytical column (4.4 mm × 150 mm, 5 μm) (Agilent Technologies Inc., Wilmington, DE) by using isocratic elution of water containing 0.1% formic acid (pH ca. 3.0) and acetonitrile containing 0.1% formic acid with ratios of 50:50, 30:70, 40:60, 50:50, 50:50, 40:60, 40:60, and 30:70 (v/v), respectively, for prodrug 1–8. […] The lower limit of quantification for prodrugs 1–8 was 0.20 μM. These HPLC methods were also accurate, precise, and selective over the range of 0.5–20 μM.

[2] = Enzymatic bioconversion in human liver S9 fraction; type: in vitro ADME; conditions: after 5 h incubation, 100 μM prodrug, 37 °C, mean ± SD, n = 3
Protocol: as §1, §2

[3] = Enzymatic bioconversion in mouse liver S9 fraction; type: in vitro ADME; conditions: after 5 h incubation, 100 μM prodrug, 37 °C, mean ± SD, n = 3
Protocol: as §1, §2

[4] = Enzymatic bioconversion in mouse primary astrocyte–microglia homogenate; type: in vitro ADME; conditions: after 5 h incubation, 100 μM prodrug, 37 °C, mean ± SD, n = 3
Protocol: as §1, §2

[5] = tested on: human U-87MG glioma cells; test: Concentration-dependent cellular uptake into human U-87MG glioma cells; type: cell-based; conditions: 5–400 μM, 30 min, 37 °C
Protocol: U-87MG (ATCC, HTB-14, unknown origin) was purchased from Lonza (Basel, Switzerland). The cells were cultured in standard conditions (37 °C, 5% CO2) using Dulbecco’s modified Eagle’s medium (DMEM) supplemented with L-glutamine (2.0 mM), heat-inactivated fetal bovine serum (FBS) (10%), penicillin (50 U/mL), and streptomycin (50 μg/mL). U-87MG cells (passages 8–25) were seeded at a density of 1 × 10^5 cells/well onto 24-well plates and used for the uptake experiments 1 day after seeding. All of the studies were carried out as three biological replicates from the same cell passage.
After removal of the culture medium, U-87MG human glioma cells and mouse primary astrocytes were carefully washed with prewarmed Hank’s balanced salt solution (HBSS) containing 125.0 mM NaCl (or choline chloride in Na^+ free conditions), 4.8 mM KCl, 1.2 mM MgSO4, 1.2 mM KH2PO4, 1.3 mM CaCl2, 5.6 mM glucose, and 25.0 mM 4-(2-hydroxyethyl)piperazine-1-ethanesulfonic acid (HEPES) with the pH adjusted to either 7.4 or pH 8.5 with 1 M NaOH (or KOH in sodium-free conditions). In the experiments at lower pH (4.5–6.5), 25.0 mM HEPES was replaced by 2-(N-morpholino) ethanesulfonic acid (MES), and the pH was adjusted to 4.5, 5.5, and 6.5 by 1.0 M NaOH. Preincubation was done with 500 μL of prewarmed HBSS at 37 °C for 10 min before adding the substrate for the uptake experiments. The functionality of OATP1C1 in human glioma U-87MG cells was studied with a known substrate (L-thyroxine, T4) and of oatp1a4, 1a5, and 1a6 in mouse primary astrocytes with [6,7-^3H(N)]-estrone-3-sulfate (ES) by incubating the uptake solution (250 μL in HBSS) consisting of 5–400 μM of the substrate at 37 °C for 30 min. After incubation, the uptake was stopped by adding 500 μL of ice-cold HBSS, and the cells were washed two times with ice-cold HBSS (2 × 500 μL). The cells were then lysed with 500 μL of 0.1 M NaOH (60 min), the lysate was neutralized, and the protein was precipitated with acidic acetonitrile (ACN with 4.8% formic acid). The supernatants were analyzed by the high-performance liquid chromatography (HPLC) methods described below (T4) or by using a liquid scintillation counter (MicroBeta2 counter, PerkinElmer, Waltham, MA) (ES). The concentrations of T4 and ES were calculated from the spiked standard curve and normalized with the protein concentrations. The protein concentrations on each plate were determined as a mean of three samples by Bio-Rad Protein Assay, based on the Bradford dye-binding method, using bovine serum albumin (BSA) as a standard protein and measuring the absorbance (595 nm) by a multiplate reader (EnVision, PerkinElmer, Inc., Waltham, MA). The OATP-mediated uptake was confirmed by changing the pH of the uptake buffer in the absence of sodium ions, and in the case of OATP1C1 in human U-87MG cells, the uptake of T4 (100 μM) was studied in the presence of competing OATP1C1-ligands, diclofenac and flufenamic acid (100 μM), and in the case of oatp1a4/1a5/1a6 in mouse primary astrocytes, the uptake of ES (100 μM) was studied in the presence of competing OATO1A2-ligand, naringin (100 μM).
Cellular uptake of prodrugs 1–8 was studied as described for L-thyroxine above by adding compounds at a concentration of 5–400 μM in prewarmed HBSS buffer (250 μL) on the cell layer and incubating at 37 °C for 30 min (uptake was linear with all compounds up to 30 min). Subsequently, the cells were washed three times with ice-cold HBSS and lysed with 500 μL of 0.1 M NaOH (60 min). The lysate was neutralized; the proteins were precipitated with acidic ACN (containing 4.8% formic acid), and the supernatants were analyzed by the (HPLC) methods described below. The concentrations of each prodrug normalized to protein concentration were calculated from the standard curve prepared by spiking known concentrations of compounds into ACN-precipitated cell lysate. […]

COc1ccc2cc([C@H](C)C(=O)Oc3c(I)cc(Oc4c(I)cc(C[C@H](N)C(=O)O)cc4I)cc3I)ccc2c1 [Prodrug 6, (S)-2-Amino-3-(4-(3,5-diiodo-4-(((S)-2-(6-methoxynaphthalen-2-yl)propanoyl)oxy)phenoxy)-3,5-diiodophenyl)propanoic acid]
Enzymatic stability, remaining percentage, human plasma [1]: 96.32 ± 3.68%
Enzymatic stability, remaining percentage, human liver S9 [2]: 78.70 ± 3.74%
Enzymatic stability, remaining percentage, mouse liver S9 [3]: 78.10 ± 1.88%
Enzymatic stability, remaining percentage, mouse brain cell homogenate [4]: 95.18 ± 4.82%
Km [5]: 138 ± 36 µM
Vmax, cellular uptake, U-87MG [5]: 13.5 nmol/min/mg
Vmax, cellular uptake, U-87MG ([5]; listed as PD6): 13.5 ± 1.6 nmol/min/mg
